MIC and Ratio data for 12 molecules are collected here from ChEMBL document CHEMBL1221367, “A new series of macrolide derivatives with 4''-O-saccharide substituents” (2010).

Converted amounts (≈) assume the structure as drawn. Some results are limits rather than exact numbers.

The term MIC denotes the lowest concentration that inhibits growth of the organism. Low readings indicate a more susceptible organism, high ones a less susceptible organism.

Holding throughout (type): functional
Experiment [1] concerns Staphylococcus epidermidis. Briefly: Antibacterial activity against methicillin-resistant Staphylococcus epidermidis MRSE-1 by the broth microdilution method.
The test system of experiment [2] is Streptococcus pyogenes. The experiment can be described thus: Antibacterial activity against Streptococcus pyogenes ERSPy-1 expressing mef by the broth microdilution method. Background: In broth dilution the organism is exposed to a series of concentrations in liquid medium.
The subject of experiment [3] is Staphylococcus aureus. The experiment can be described thus: Antibacterial activity against methicillin-resistant Staphylococcus aureus BK2464 by the broth microdilution method.
Experiment [4] relates to Streptococcus pyogenes. Briefly: Antibacterial activity against erythromycin-resistant Streptococcus pyogenes 8902 expressing ermB by the broth microdilution method.
Experiment [5] relates to Streptococcus pneumoniae. Briefly: Antibacterial activity against erythromycin-resistant Streptococcus pneumoniae ERSP-2 expressing ermB and mef by the broth microdilution method.
Experiment [6] concerns Staphylococcus aureus. The experiment can be described thus: Antibacterial activity against methicillin-susceptible Staphylococcus aureus ATCC 29213 by the broth microdilution method.
Experiment [7] has as its system Streptococcus pyogenes. The experiment can be described thus: Ratio of compound MIC to clarithromycin MIC for Streptococcus pyogenes ERSPy-1 expressing mef.
Experiment [8] concerns Streptococcus pyogenes. Briefly: Ratio of compound MIC to clarithromycin MIC for erythromycin-resistant Streptococcus pyogenes 8902 expressing ermB.
Experiment [9] concerns Streptococcus pneumoniae. Briefly: Ratio of compound MIC to clarithromycin MIC for erythromycin-resistant Streptococcus pneumoniae ERSP-2 expressing ermB and mef.

As for `CC[C@H]1OC(=O)[C@H](C)[C@@H](O[C@H]2C[C@@](C)(OC)[C@@H](O[C@@H]3O[C@H](CO)[C@@H](O)[C@H](O)[C@H]3O)[C@H](C)O2)[C@H](C)[C@@H](O[C@@H]2O[C@H](C)C[C@H](N(C)C)[C@H]2O)[C@](C)(OC)C[C@@H](C)C(=O)[C@H](C)[C@@H](O)[C@]1(C)O`, the minimum inhibitory concentration (MIC) was 16 mg/L (≈ 17.6 µM) in experiment [1]; 16 mg/L (≈ 17.6 µM) in the experiment with Streptococcus pyogenes [2]; above 16 mg/L against Staphylococcus aureus [3]; 16 mg/L (≈ 17.6 µM) against Streptococcus pyogenes [4]; 16 mg/L (≈ 17.6 µM) against Streptococcus pneumoniae [5]; above 16 mg/L against Staphylococcus aureus [6].

`CC[C@H]1OC(=O)[C@H](C)C(=O)[C@H](C)[C@@H](O[C@@H]2O[C@H](C)C[C@H](N(C)C)[C@H]2O)[C@](C)(OC)C[C@@H](C)C(=O)[C@H](C)[C@H]2N(CCCCn3cnc(-c4cccnc4)c3)C(=O)O[C@]12C` [TELITHROMYCIN]: the MIC in [1] is 0.125 mg/L (≈ 0.154 µM); against Streptococcus pyogenes [2] it was 0.25 mg/L (≈ 0.308 µM); in the experiment with Staphylococcus aureus [3] it was above 32 mg/L; in the experiment on Streptococcus pyogenes [4], 0.25 mg/L (≈ 0.308 µM); against Streptococcus pneumoniae [5], 0.125 mg/L (≈ 0.154 µM); against Staphylococcus aureus [6], 0.125 mg/L (≈ 0.154 µM).

In the case of `CC[C@H]1OC(=O)[C@H](C)[C@@H](O[C@H]2C[C@@](C)(OC)[C@@H](O[C@@H]3O[C@H](CO)[C@@H](O)[C@H](O)[C@H]3O)[C@H](C)O2)[C@H](C)[C@@H](O[C@@H]2O[C@H](C)C[C@H](N(C)C)[C@H]2O)[C@](C)(OC)C[C@@H](C)C(=O)[C@H](C)[C@H]2N(CCCCn3cnc4cccnc43)C(=O)O[C@]12C`, the MIC in experiment [1] is above 16 mg/L; against Streptococcus pyogenes [2], 16 mg/L (≈ 14.4 µM); against Staphylococcus aureus [3], above 16 mg/L; against Streptococcus pyogenes [4] it was 16 mg/L (≈ 14.4 µM); in the experiment with Streptococcus pneumoniae [5] it was 8 mg/L (≈ 7.22 µM); in the experiment on Staphylococcus aureus [6], above 16 mg/L.

For the molecule `CC[C@H]1OC(=O)[C@H](C)[C@@H](O[C@H]2C[C@@](C)(OC)[C@@H](O[C@@H]3O[C@@H]4COC(c5ccccc5)O[C@H]4[C@H](O)[C@H]3O)[C@H](C)O2)[C@H](C)[C@@H](O[C@@H]2O[C@H](C)C[C@H](N(C)C)[C@H]2O)[C@](C)(OC)C[C@@H](C)C(=O)[C@H](C)[C@H]2N(CCCCn3cnc4ncccc43)C(=O)O[C@]12C` (stereo not given in full), the MIC was 4 mg/L (≈ 3.34 µM) in experiment [1]; 2 mg/L (≈ 1.67 µM) in the experiment on Streptococcus pyogenes [2]; above 16 mg/L against Staphylococcus aureus [3]; 8 mg/L (≈ 6.69 µM) with Streptococcus pyogenes [4]; 1 mg/L (≈ 0.836 µM) against Streptococcus pneumoniae [5]; 4 mg/L (≈ 3.34 µM) with Staphylococcus aureus [6].

With `CC[C@H]1OC(=O)[C@H](C)[C@@H](O[C@H]2C[C@@](C)(OC)[C@@H](O[C@@H]3O[C@H](CO)[C@@H](O)[C@H](O)[C@H]3OC(C)=O)[C@H](C)O2)[C@H](C)[C@@H](O[C@@H]2O[C@H](C)C[C@H](N(C)C)[C@H]2O)[C@](C)(OC)C[C@@H](C)C(=O)[C@H](C)[C@@H](O)[C@]1(C)O`, the minimum inhibitory concentration (MIC) in experiment [1] is above 16 mg/L; against Streptococcus pyogenes [2], 16 mg/L (≈ 16.8 µM); against Staphylococcus aureus [3] it was above 16 mg/L; with Streptococcus pyogenes [4] it was above 16 mg/L; in the experiment on Streptococcus pneumoniae [5] it was 16 mg/L (≈ 16.8 µM); against Staphylococcus aureus [6], above 16 mg/L.

For the molecule `CC[C@H]1OC(=O)[C@H](C)[C@@H](O[C@H]2C[C@@](C)(OC)[C@@H](O[C@@H]3O[C@H](COC(=O)c4ccccc4)[C@@H](O)[C@H](O)[C@H]3OC(C)=O)[C@H](C)O2)[C@H](C)[C@@H](O[C@@H]2O[C@H](C)C[C@H](N(C)C)[C@H]2O)[C@](C)(OC)C[C@@H](C)C(=O)[C@H](C)[C@@H](O)[C@]1(C)O`, the MIC was 16 mg/L (≈ 15.1 µM) in [1]; 8 mg/L (≈ 7.57 µM) with Streptococcus pyogenes [2]; above 16 mg/L against Staphylococcus aureus [3]; 16 mg/L (≈ 15.1 µM) in the experiment on Streptococcus pyogenes [4]; 8 mg/L (≈ 7.57 µM) in the experiment on Streptococcus pneumoniae [5]; 16 mg/L (≈ 15.1 µM) in the experiment on Staphylococcus aureus [6].

Take `CC[C@H]1OC(=O)[C@H](C)[C@@H](O[C@H]2C[C@@](C)(OC)[C@@H](O[C@@H]3O[C@H](CO)[C@@H](O)[C@H](O)[C@H]3O)[C@H](C)O2)[C@H](C)[C@@H](O[C@@H]2O[C@H](C)C[C@H](N(C)C)[C@H]2O)[C@](C)(OC)C[C@@H](C)C(=O)[C@H](C)[C@H]2N(CCCCn3cnc4ncccc43)C(=O)O[C@]12C`: the MIC in experiment [1] was above 16 mg/L; in the experiment with Streptococcus pyogenes [2], 8 mg/L (≈ 7.22 µM); in the experiment on Staphylococcus aureus [3] it was above 16 mg/L; against Streptococcus pyogenes [4], 16 mg/L (≈ 14.4 µM); against Streptococcus pneumoniae [5], 8 mg/L (≈ 7.22 µM); against Staphylococcus aureus [6], above 16 mg/L.

In the case of `CC[C@H]1OC(=O)[C@H](C)[C@@H](O[C@H]2C[C@@](C)(OC)[C@@H](O[C@@H]3O[C@H](CO)[C@@H](O[C@H]4O[C@@H](CO)[C@H](O)[C@@H](O)[C@@H]4O)[C@H](O)[C@H]3O)[C@H](C)O2)[C@H](C)[C@@H](O[C@@H]2O[C@H](C)C[C@H](N(C)C)[C@H]2O)[C@](C)(OC)C[C@@H](C)C(=O)[C@H](C)[C@@H](O)[C@]1(C)O`, the MIC in experiment [1] is above 16 mg/L; with Streptococcus pyogenes [2], above 16 mg/L; against Staphylococcus aureus [3], above 16 mg/L; in the experiment on Streptococcus pyogenes [4], above 16 mg/L; in the experiment with Streptococcus pneumoniae [5] it was 16 mg/L (≈ 14.9 µM); with Staphylococcus aureus [6], above 16 mg/L.

As for `CC[C@H]1OC(=O)[C@H](C)[C@@H](O[C@H]2C[C@@](C)(OC)[C@@H](O[C@@H]3O[C@H](COC(=O)c4ccccc4)[C@@H](OC(=O)c4ccccc4)[C@H](OC(C)=O)[C@H]3OC(C)=O)[C@H](C)O2)[C@H](C)[C@@H](O[C@@H]2O[C@H](C)C[C@H](N(C)C)[C@H]2O)[C@](C)(OC)C[C@@H](C)C(=O)[C@H](C)[C@@H](O)[C@]1(C)O`, the MIC in experiment [1] was 16 mg/L (≈ 13.3 µM); against Streptococcus pyogenes [2], 8 mg/L (≈ 6.65 µM); with Staphylococcus aureus [3], above 16 mg/L; against Streptococcus pyogenes [4] it was 16 mg/L (≈ 13.3 µM); against Streptococcus pneumoniae [5], 16 mg/L (≈ 13.3 µM); in the experiment on Staphylococcus aureus [6], above 16 mg/L.

For `CC[C@H]1OC(=O)[C@H](C)[C@@H](O[C@H]2C[C@@](C)(OC)[C@@H](O[C@H]3O[C@H](COC(C)=O)[C@@H](OC(=O)c4ccccc4)[C@H](OC(C)=O)[C@H]3OC(C)=O)[C@H](C)O2)[C@H](C)[C@@H](O[C@@H]2O[C@H](C)C[C@H](N(C)C)[C@H]2O)[C@](C)(OC)C[C@@H](C)C(=O)[C@H](C)[C@@H](O)[C@]1(C)O`, the MIC in experiment [1] was 16 mg/L (≈ 14 µM); against Streptococcus pyogenes [2], 1 mg/L (≈ 0.877 µM); against Staphylococcus aureus [3], above 16 mg/L; against Streptococcus pyogenes [4] it was 16 mg/L (≈ 14 µM); against Streptococcus pneumoniae [5] it was 16 mg/L (≈ 14 µM); against Staphylococcus aureus [6] it was 16 mg/L (≈ 14 µM).

For `CC[C@H]1OC(=O)[C@H](C)[C@@H](O[C@H]2C[C@@](C)(OC)[C@@H](O)[C@H](C)O2)[C@H](C)[C@@H](O[C@@H]2O[C@H](C)C[C@H](N(C)C)[C@H]2O)[C@](C)(OC)C[C@@H](C)C(=O)[C@H](C)[C@@H](O)[C@]1(C)O` [CLARITHROMYCIN], the MIC was 16 mg/L (≈ 21.4 µM) in [1]; 2 mg/L (≈ 2.67 µM) against Streptococcus pyogenes [2]; above 32 mg/L against Staphylococcus aureus [3]; 32 mg/L (≈ 42.8 µM) against Streptococcus pyogenes [4]; 16 mg/L (≈ 21.4 µM) in the experiment on Streptococcus pneumoniae [5]; 0.25 mg/L (≈ 0.334 µM) against Staphylococcus aureus [6].

As to `CC[C@H]1OC(=O)[C@H](C)[C@@H](O[C@H]2C[C@@](C)(OC)[C@@H](O[C@@H]3O[C@@H]4COC(c5ccccc5)O[C@H]4[C@H](O)[C@H]3O)[C@H](C)O2)[C@H](C)[C@@H](O[C@@H]2O[C@H](C)C[C@H](N(C)C)[C@H]2O)[C@](C)(OC)C[C@@H](C)C(=O)[C@H](C)[C@H]2N(CCCCn3cnc4cccnc43)C(=O)O[C@]12C` (stereo not given in full), the MIC in experiment [1] is 4 mg/L (≈ 3.34 µM); with Streptococcus pyogenes [2] it was 0.5 mg/L (≈ 0.418 µM); against Staphylococcus aureus [3] it was above 16 mg/L; in the experiment on Streptococcus pyogenes [4] it was 4 mg/L (≈ 3.34 µM); against Streptococcus pneumoniae [5] it was 2 mg/L (≈ 1.67 µM); in the experiment on Staphylococcus aureus [6] it was 4 mg/L (≈ 3.34 µM). The Ratio is given as 4 in the experiment on Streptococcus pyogenes [7], 8 in the experiment on Streptococcus pyogenes [8] and 8 in the experiment on Streptococcus pneumoniae [9].
